Earlier results as cited in patent US20070142460A1, “Compounds, compositions and methods” (priority 2003, published 2007).

Tested on: A549 cells

GI50 | Compound
500 µM | NC(=O)NO [hydroxyurea]
1 µM | O=c1[nH]cc(F)c(=O)[nH]1 [5-fluorouracil]
0.004 µM | CC(=O)O[C@H]1C(=O)[C@@]2(C)[C@H]([C@H](OC(=O)c3ccccc3)[C@]3(O)C[C@H](OC(=O)[C@H](O)[C@@H](NC(=O)c4ccccc4)c4ccccc4)C(C)=C1C3(C)C)[C@]1(OC(C)=O)CO[C@@H]1C[C@@H]2O [paclitaxel]
0.063 µM | COc1cccc2c1C(=O)c1c(O)c3c(c(O)c1C2=O)C[C@@](O)(C(=O)CO)C[C@@H]3O[C@H]1C[C@H](N)[C@H](O)[C@H](C)O1 [doxorubicin]
